# The source made the active and inactive calls.
# How the values were obtained:
# [1] = molecular target: DNA damage-inducible transcript 3 protein (Mus musculus, UniProt P35639); type: functional, Cricetulus griseus
# [2] = molecular target: T1, Sentrin-specific protease 8 (Homo sapiens, UniProt Q96LD8); assay: SENP8 protease inhibitors, SAR follow-up, biochemical, luminescence, set 2 (AID 588601); type: functional
# T1 sequence (Q96LD8 whole entry): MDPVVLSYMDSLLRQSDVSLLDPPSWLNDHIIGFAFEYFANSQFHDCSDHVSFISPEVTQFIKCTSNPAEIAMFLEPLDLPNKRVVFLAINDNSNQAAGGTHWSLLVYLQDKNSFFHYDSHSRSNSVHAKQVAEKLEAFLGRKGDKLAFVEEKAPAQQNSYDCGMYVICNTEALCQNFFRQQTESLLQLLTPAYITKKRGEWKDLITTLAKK
# Caspase-3 = molecular target: T2, Caspase-3 (Homo sapiens, UniProt P42574); assay: SAR Analysis of small molecule inhibitors of Sentrin-specific proteases (SENPs) using a Caspase-3 Selectivity assay. [Related pubchem assays (depositor defined):AID2540, AID2599, AID434973, AID489001]; type: functional
# T2 sequence (P42574 whole entry): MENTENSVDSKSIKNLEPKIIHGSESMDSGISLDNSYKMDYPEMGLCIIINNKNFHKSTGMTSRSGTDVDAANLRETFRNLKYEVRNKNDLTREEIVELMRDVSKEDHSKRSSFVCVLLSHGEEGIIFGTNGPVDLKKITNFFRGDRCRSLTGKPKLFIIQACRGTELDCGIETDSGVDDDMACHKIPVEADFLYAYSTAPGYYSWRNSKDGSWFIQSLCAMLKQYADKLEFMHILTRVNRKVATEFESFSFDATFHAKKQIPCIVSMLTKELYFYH
# [3] = molecular target: T3, Nuclear receptor subfamily 0 group B member 1 (Homo sapiens, UniProt P51843); assay: Luminescence-based cell-based high throughput dose response assay for inhibitors of the orphan nuclear receptor subfamily 0, group B, member 1 (DAX1; NR0B1). [Related pubchem assays (depositor defined):AID504766, AID504790]; type: functional
# T3 sequence (P51843 whole entry): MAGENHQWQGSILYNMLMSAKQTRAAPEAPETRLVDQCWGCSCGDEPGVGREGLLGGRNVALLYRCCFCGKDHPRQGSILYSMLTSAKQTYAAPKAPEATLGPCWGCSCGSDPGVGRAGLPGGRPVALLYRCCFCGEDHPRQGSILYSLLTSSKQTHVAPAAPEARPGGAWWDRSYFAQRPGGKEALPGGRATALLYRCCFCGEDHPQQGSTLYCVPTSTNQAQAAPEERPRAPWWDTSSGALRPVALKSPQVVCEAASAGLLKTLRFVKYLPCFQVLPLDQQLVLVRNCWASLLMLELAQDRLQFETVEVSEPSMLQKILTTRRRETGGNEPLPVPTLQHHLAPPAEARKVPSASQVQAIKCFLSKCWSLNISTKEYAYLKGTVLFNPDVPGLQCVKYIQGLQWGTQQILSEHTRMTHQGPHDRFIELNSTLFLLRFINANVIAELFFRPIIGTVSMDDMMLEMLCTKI
# [4] = molecular target: T4, Histone-lysine N-methyltransferase NSD2 (Homo sapiens, UniProt O96028); type: biochemical
# T4 sequence (O96028 whole entry): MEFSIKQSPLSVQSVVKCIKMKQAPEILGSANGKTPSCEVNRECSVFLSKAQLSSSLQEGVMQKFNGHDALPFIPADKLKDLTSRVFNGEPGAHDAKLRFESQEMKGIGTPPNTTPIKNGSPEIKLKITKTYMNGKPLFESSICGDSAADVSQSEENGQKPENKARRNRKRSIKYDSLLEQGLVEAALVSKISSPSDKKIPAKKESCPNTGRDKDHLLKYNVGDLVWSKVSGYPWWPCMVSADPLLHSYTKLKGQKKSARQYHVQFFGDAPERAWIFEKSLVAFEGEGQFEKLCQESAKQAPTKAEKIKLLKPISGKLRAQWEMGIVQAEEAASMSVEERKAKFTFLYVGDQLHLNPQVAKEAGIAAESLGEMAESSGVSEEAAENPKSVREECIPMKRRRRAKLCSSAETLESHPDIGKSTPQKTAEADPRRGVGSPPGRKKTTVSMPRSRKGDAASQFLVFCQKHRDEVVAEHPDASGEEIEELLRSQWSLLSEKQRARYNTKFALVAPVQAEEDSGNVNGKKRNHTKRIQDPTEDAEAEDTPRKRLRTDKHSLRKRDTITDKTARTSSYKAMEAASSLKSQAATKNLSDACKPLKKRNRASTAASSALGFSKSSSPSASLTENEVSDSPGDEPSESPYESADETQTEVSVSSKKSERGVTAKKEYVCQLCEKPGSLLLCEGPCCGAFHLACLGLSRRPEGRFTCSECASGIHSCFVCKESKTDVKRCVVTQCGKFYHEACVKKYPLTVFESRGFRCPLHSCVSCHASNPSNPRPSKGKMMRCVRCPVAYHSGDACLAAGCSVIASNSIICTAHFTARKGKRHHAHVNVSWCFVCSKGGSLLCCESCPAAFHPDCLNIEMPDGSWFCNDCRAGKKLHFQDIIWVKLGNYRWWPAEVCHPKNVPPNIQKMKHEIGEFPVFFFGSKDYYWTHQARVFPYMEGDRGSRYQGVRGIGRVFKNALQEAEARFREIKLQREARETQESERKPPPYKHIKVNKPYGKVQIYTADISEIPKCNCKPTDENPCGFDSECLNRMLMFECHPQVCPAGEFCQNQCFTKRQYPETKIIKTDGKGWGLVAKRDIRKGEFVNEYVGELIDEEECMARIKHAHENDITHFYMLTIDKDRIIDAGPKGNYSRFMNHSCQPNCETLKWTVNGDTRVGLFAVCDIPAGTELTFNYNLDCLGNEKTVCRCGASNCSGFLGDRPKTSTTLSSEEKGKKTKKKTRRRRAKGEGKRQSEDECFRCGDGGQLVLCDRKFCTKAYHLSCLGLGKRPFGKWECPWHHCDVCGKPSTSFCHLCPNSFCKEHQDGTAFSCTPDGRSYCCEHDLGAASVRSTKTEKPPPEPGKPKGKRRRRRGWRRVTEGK
# [5] = molecular target: Cystic fibrosis transmembrane conductance regulator/Golgi-associated PDZ and coiled-coil motif-containing protein (Homo sapiens, UniProt P13569+Q9HD26); assay: CAL PDZ peptide-binding inhibitors, dose response, biochemical, fluorescence polarization, Cerulean-tagged CAL PDZ, cherry-picks (AID 504773)
# Cystic fibrosis transmembrane conductance regulator/Golgi-associated PDZ and coiled-coil motif-containing protein, sequence (P13569 whole entry, other chains not shown): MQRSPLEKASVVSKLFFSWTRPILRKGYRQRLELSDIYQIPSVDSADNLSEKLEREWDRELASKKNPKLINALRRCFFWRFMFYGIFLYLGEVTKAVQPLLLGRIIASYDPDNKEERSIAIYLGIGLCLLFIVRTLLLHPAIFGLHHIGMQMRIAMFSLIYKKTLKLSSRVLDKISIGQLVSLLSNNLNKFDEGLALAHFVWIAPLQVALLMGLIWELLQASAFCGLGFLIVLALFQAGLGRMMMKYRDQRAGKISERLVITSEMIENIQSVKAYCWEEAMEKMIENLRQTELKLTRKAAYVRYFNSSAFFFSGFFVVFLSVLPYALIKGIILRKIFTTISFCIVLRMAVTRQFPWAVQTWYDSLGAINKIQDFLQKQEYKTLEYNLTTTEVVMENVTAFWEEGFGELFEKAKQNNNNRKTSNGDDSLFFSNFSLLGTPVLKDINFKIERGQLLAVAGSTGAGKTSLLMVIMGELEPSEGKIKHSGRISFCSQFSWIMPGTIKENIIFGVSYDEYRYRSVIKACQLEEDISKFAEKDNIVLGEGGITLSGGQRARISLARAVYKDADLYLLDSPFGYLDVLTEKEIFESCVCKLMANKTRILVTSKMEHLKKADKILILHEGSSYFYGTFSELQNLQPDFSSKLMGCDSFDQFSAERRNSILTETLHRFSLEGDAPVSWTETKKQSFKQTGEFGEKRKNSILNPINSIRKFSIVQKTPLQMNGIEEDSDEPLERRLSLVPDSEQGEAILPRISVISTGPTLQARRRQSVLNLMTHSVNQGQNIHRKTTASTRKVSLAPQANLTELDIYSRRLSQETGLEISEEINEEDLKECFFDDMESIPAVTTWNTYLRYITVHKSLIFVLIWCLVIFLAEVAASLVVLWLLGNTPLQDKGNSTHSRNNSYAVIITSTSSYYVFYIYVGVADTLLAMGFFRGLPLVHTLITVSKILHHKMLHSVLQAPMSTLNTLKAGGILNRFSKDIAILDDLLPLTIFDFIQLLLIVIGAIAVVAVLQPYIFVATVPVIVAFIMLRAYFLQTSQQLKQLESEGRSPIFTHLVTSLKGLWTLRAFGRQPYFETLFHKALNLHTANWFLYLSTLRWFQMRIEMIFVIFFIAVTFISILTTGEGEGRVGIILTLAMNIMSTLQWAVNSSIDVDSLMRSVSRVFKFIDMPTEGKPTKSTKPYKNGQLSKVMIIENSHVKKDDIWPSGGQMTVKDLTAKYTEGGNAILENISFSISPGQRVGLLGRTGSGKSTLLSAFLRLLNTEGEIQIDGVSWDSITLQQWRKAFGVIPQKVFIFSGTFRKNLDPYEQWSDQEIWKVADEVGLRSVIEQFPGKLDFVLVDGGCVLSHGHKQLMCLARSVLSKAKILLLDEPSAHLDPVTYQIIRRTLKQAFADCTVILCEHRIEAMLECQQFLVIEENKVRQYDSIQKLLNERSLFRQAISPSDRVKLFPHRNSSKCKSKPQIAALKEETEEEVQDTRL
# DNA damage-inducible transcript 3 protein, sequence (P35639 whole entry): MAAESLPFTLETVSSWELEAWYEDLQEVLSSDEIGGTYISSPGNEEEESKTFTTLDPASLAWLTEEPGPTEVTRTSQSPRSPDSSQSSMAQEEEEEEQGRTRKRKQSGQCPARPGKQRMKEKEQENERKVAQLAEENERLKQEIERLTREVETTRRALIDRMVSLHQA
structure (smiles),measurement,setting,value
Cc1nn(-c2ccccc2)c(Cl)c1CN(C(=O)CCl)c1ccc(Cl)cc1,Absolute IC50 (CHOP),[1],10 µM
Oc1ccccc1/C=C/c1noc(-c2ccccc2O)n1,IC50,[2],43 µM (active)
same,IC50,Caspase-3,21 µM (active)
same,IC50,[3],> 67.5 µM (inactive)
Cc1cccc(N=Nc2ccc(N(C)C)cc2)c1,AC50,[4],14.2 µM (active)
O=C(O)CSc1cc(NS(=O)(=O)c2ccc(Cl)cc2)c2ccccc2c1O,AC50,[5],30 µM (active)

# From ChEMBL document CHEMBL1201862, “PubChem BioAssay data set” (2004)
